{
  "source": "patent US20240335407A1",
  "about": "“PHARMACEUTICAL COMPOSITION AND USE THEREOF” (NEURODAWN PHARMACEUTICAL CO., LTD., priority 2021, published 2024)",
  "key": {"[1]": {"tested_on": "neuropathic pain induced by separate L5 spinal nerve ligation (SNL)", "test": "Mechanical pain threshold (MWT) in the L5 spinal nerve ligation (SNL) model of neuropathic pain, with synergy analysis (Jin Zhengjun q, CompuSyn CI)", "type": "in vivo, Sprague-Dawley (SD) rats", "conditions": "Mean ± SEM"}, "[2]": {"tested_on": "neuropathic pain induced by separate L5 spinal nerve ligation (SNL)", "test": "Mechanical pain threshold (MWT) in the L5 spinal nerve ligation (SNL) model of neuropathic pain, with synergy analysis (Jin Zhengjun q, CompuSyn CI)", "type": "in vivo, Sprague-Dawley (SD) rats", "conditions": "Example 1, Mean ± SEM", "protocol": "In this experiment, the model of neuropathic pain induced by separate L5 spinal nerve ligation (SNL) was adopted. Animals were anesthetized with 7% chloral hydrate (dosage: 420 mg/kg, intraperitoneal injection), and the limbs of rats were fixed in a prone position. The rats were placed under dissecting microscope with the back hair-cut off, then wiped and disinfected with alcohol. An incision about 2-3 cm long was cut on the right side of the dorsal spine, and the two spinal nerves L4 and L5 were exposed, the spinal nerve L5 was lightly ligated with 6-0 braided line to avoid damage to the contiguous spinal nerves. Double-layer suture was performed on the back incisions of the experimental animals, and disinfected with iodophor, then the experimental animals were gently put into a feeding cage, allowed to free access to movement, eating and drinking.\nMechanical withdrawal threshold (MWT) of all experimental animals was measured by mechanical automatic stimulated needle. The experimental animals were placed in a transparent plexiglass box with iron gauze at the bottom, and after acclimatization for 30 minutes, the vola of the hind limbs of the experimental animals were stimulated with a stimulated needle at a uniform speed, and the reaction threshold when rats rapidly retracted or shook their feet was recorded (as MWT), which was the mechanical pain threshold of the animals.\nThe basic mechanical pain threshold of each experimental animal was measured for 2 days […], and the basic mechanical pain threshold of experimental animals was the average of two values. […]\nThe L5-SNL model was prepared by selecting SD rats with appropriate weight, and the measurement of postoperative mechanical pain threshold was started at least 7 days after modeling. […] The experimental model animals were administered corresponding drugs or solvents, and the mechanical pain threshold of animals was measured at 0.5 h and 3 h after administration. […]"}, "[3]": {"conditions": "Example 1, 0.5 mg/kg intraperitoneal"}, "[4]": {"conditions": "Example 2, 1 mg/kg intraperitoneal"}, "[5]": {"conditions": "Example 2, 20 mg/kg intraperitoneal"}, "[6]": {"conditions": "Example 3, 3 mg/kg intraperitoneal"}, "[7]": {"conditions": "Example 3, 18 mg/kg intraperitoneal"}, "[8]": {"conditions": "Example 3, 30 mg/kg intraperitoneal"}, "[9]": {"conditions": "Example 4, 3 mg/kg intraperitoneal"}, "[10]": {"conditions": "Example 4, 9 mg/kg intraperitoneal"}, "[11]": {"conditions": "Example 4, 18 mg/kg intraperitoneal"}, "[12]": {"conditions": "Example 5, 3 mg/kg intraperitoneal"}, "[13]": {"conditions": "Example 5, 6 mg/kg intraperitoneal"}, "[14]": {"conditions": "Example 5, 9 mg/kg intraperitoneal"}, "[15]": {"conditions": "Example 6, 6 mg/kg intraperitoneal"}, "[16]": {"conditions": "Example 2, 10 mg/kg intraperitoneal"}, "[17]": {"conditions": "Example 3, 12 mg/kg intraperitoneal"}, "[18]": {"conditions": "Example 4, 6 mg/kg intraperitoneal"}, "[19]": {"conditions": "Example 4, 12 mg/kg intraperitoneal"}, "[20]": {"conditions": "Example 6, 7.5 mg/kg intraperitoneal"}, "[21]": {"conditions": "Example 6, 10 mg/kg intraperitoneal"}},
  "data": [
    {"compound": "CC(C)C[C@H](CN)CC(=O)O", "note": "[pregabalin, (S)-3-aminomethyl-5-methylhexanoic acid]", "values": [
      {"measurement": "pain threshold at 0.5 h after administration", "setting": "[1]; [3]", "result": "15.48 ± 1.27", "unit": "g"},
      {"measurement": "pain threshold at 3 h after administration", "setting": "[1]; [3]", "result": "15.54 ± 1.15", "unit": "g"},
      {"measurement": "pain threshold at 3 h after administration", "setting": "[1]; Example 1, 25 mg/kg intraperitoneal", "result": "24.65 ± 0.34", "unit": "g"},
      {"measurement": "pain threshold at 0.5 h after administration", "setting": "[1]; [4]", "result": "15.57 ± 1.04", "unit": "g"},
      {"measurement": "pain threshold at 3 h after administration", "setting": "[1]; [4]", "result": "15.68 ± 1.32", "unit": "g"},
      {"measurement": "pain threshold at 0.5 h after administration", "setting": "[1]; [5]", "result": "17.04 ± 0.54", "unit": "g"},
      {"measurement": "pain threshold at 3 h after administration", "setting": "[1]; [5]", "result": "24.76 ± 0.73", "unit": "g"},
      {"measurement": "pain threshold at 0.5 h after administration", "setting": "[1]; [6]", "result": "15.19 ± 1.31", "unit": "g"},
      {"measurement": "pain threshold at 3 h after administration", "setting": "[1]; [6]", "result": "16.75 ± 1.14", "unit": "g"},
      {"measurement": "pain threshold at 0.5 h after administration", "setting": "[1]; [7]", "result": "16.36 ± 1.35", "unit": "g"},
      {"measurement": "pain threshold at 3 h after administration", "setting": "[1]; [7]", "result": "23.92 ± 1.30", "unit": "g"},
      {"measurement": "pain threshold at 0.5 h after administration", "setting": "[1]; [8]", "result": "18.05 ± 0.73", "unit": "g"},
      {"measurement": "pain threshold at 3 h after administration", "setting": "[1]; [8]", "result": "26.13 ± 0.91", "unit": "g"},
      {"measurement": "pain threshold at 0.5 h after administration", "setting": "[1]; [9]", "result": "15.24 ± 0.95", "unit": "g"},
      {"measurement": "pain threshold at 3 h after administration", "setting": "[1]; [9]", "result": "16.96 ± 1.22", "unit": "g"},
      {"measurement": "pain threshold at 0.5 h after administration", "setting": "[1]; [10]", "result": "15.03 ± 1.21", "unit": "g"},
      {"measurement": "pain threshold at 3 h after administration", "setting": "[1]; [10]", "result": "21.13 ± 1.13", "unit": "g"},
      {"measurement": "pain threshold at 0.5 h after administration", "setting": "[1]; [11]", "result": "16.26 ± 0.74", "unit": "g"},
      {"measurement": "pain threshold at 3 h after administration", "setting": "[1]; [11]", "result": "24.54 ± 0.56", "unit": "g"},
      {"measurement": "pain threshold at 0.5 h after administration", "setting": "[1]; [12]", "result": "15.35 ± 0.57", "unit": "g"},
      {"measurement": "pain threshold at 3 h after administration", "setting": "[1]; [12]", "result": "16.73 ± 1.15", "unit": "g"},
      {"measurement": "pain threshold at 0.5 h after administration", "setting": "[1]; [13]", "result": "15.24 ± 1.15", "unit": "g"},
      {"measurement": "pain threshold at 3 h after administration", "setting": "[1]; [13]", "result": "19.15 ± 1.21", "unit": "g"},
      {"measurement": "pain threshold at 0.5 h after administration", "setting": "[1]; [14]", "result": "15.78 ± 0.83", "unit": "g"},
      {"measurement": "pain threshold at 3 h after administration", "setting": "[1]; [14]", "result": "21.66 ± 0.79", "unit": "g"},
      {"measurement": "pain threshold at 0.5 h after administration", "setting": "[1]; [15]", "result": "17.39 ± 1.26", "unit": "g"},
      {"measurement": "pain threshold at 3 h after administration", "setting": "[1]; [15]", "result": 19.62, "unit": "g"},
      {"measurement": "pain threshold at 6 h after administration", "setting": "[1]; [15]", "result": 19.49, "unit": "g"},
      {"measurement": "pain threshold at 8 h after administration", "setting": "[1]; [15]", "result": 19.26, "unit": "g"},
      {"measurement": "pain threshold at 0.5 h after administration", "setting": "[1]; Example 6, 20 mg/kg intraperitoneal", "result": "17.53 ± 1.33", "unit": "g"},
      {"measurement": "pain threshold at 0.5 h after administration", "setting": "[1]; Example 6, 30 mg/kg intraperitoneal", "result": "18.65 ± 1.24", "unit": "g"},
      {"measurement": "pain threshold at 0.5 h after administration", "setting": "[2]; 25 mg/kg intraperitoneal", "result": "17.41 ± 0.58", "unit": "g"}
    ]},
    {"compound": "Nc1nc2ccc(OC(F)(F)F)cc2s1", "note": "[riluzole]", "values": [
      {"measurement": "pain threshold at 0.5 h after administration", "setting": "[1]; [3]", "result": "14.25 ± 0.90", "unit": "g"},
      {"measurement": "pain threshold at 3 h after administration", "setting": "[1]; Example 1, 10 mg/kg intraperitoneal", "result": "19.87 ± 0.92", "unit": "g"},
      {"measurement": "pain threshold at 0.5 h after administration", "setting": "[1]; [4]", "result": "14.08 ± 0.92", "unit": "g"},
      {"measurement": "pain threshold at 3 h after administration", "setting": "[1]; [4]", "result": "14.01 ± 0.99", "unit": "g"},
      {"measurement": "pain threshold at 0.5 h after administration", "setting": "[1]; [16]", "result": "21.79 ± 1.33", "unit": "g"},
      {"measurement": "pain threshold at 3 h after administration", "setting": "[1]; [16]", "result": "20.63 ± 1.12", "unit": "g"},
      {"measurement": "pain threshold at 0.5 h after administration", "setting": "[1]; [6]", "result": "15.48 ± 0.92", "unit": "g"},
      {"measurement": "pain threshold at 3 h after administration", "setting": "[1]; [6]", "result": "15.16 ± 1.31", "unit": "g"},
      {"measurement": "pain threshold at 0.5 h after administration", "setting": "[1]; [17]", "result": "22.54 ± 1.33", "unit": "g"},
      {"measurement": "pain threshold at 3 h after administration", "setting": "[1]; [17]", "result": "21.69 ± 1.12", "unit": "g"},
      {"measurement": "pain threshold at 0.5 h after administration", "setting": "[1]; [9]", "result": "15.43 ± 0.69", "unit": "g"},
      {"measurement": "pain threshold at 3 h after administration", "setting": "[1]; [9]", "result": "15.03 ± 0.79", "unit": "g"},
      {"measurement": "pain threshold at 0.5 h after administration", "setting": "[1]; [18]", "result": "18.47 ± 0.37", "unit": "g"},
      {"measurement": "pain threshold at 3 h after administration", "setting": "[1]; [18]", "result": "17.47 ± 0.73", "unit": "g"},
      {"measurement": "pain threshold at 0.5 h after administration", "setting": "[1]; [19]", "result": "22.54 ± 1.33", "unit": "g"},
      {"measurement": "pain threshold at 3 h after administration", "setting": "[1]; [19]", "result": "21.69 ± 1.12", "unit": "g"},
      {"measurement": "pain threshold at 0.5 h after administration", "setting": "[1]; [12]", "result": "15.35 ± 0.58", "unit": "g"},
      {"measurement": "pain threshold at 3 h after administration", "setting": "[1]; [12]", "result": "14.98 ± 0.84", "unit": "g"},
      {"measurement": "pain threshold at 0.5 h after administration", "setting": "[1]; [13]", "result": "18.21 ± 0.47", "unit": "g"},
      {"measurement": "pain threshold at 3 h after administration", "setting": "[1]; [13]", "result": "17.45 ± 0.46", "unit": "g"},
      {"measurement": "pain threshold at 0.5 h after administration", "setting": "[1]; [15]", "result": 22.96, "unit": "g"},
      {"measurement": "pain threshold at 3 h after administration", "setting": "[1]; [15]", "result": "15.74 ± 0.93", "unit": "g"},
      {"measurement": "pain threshold at 6 h after administration", "setting": "[1]; [15]", "result": "15.08 ± 0.77", "unit": "g"},
      {"measurement": "pain threshold at 8 h after administration", "setting": "[1]; [15]", "result": "14.95 ± 0.81", "unit": "g"},
      {"measurement": "pain threshold at 3 h after administration", "setting": "[1]; [20]", "result": "16.44 ± 1.07", "unit": "g"},
      {"measurement": "pain threshold at 6 h after administration", "setting": "[1]; [20]", "result": "16.52 ± 1.06", "unit": "g"},
      {"measurement": "pain threshold at 8 h after administration", "setting": "[1]; [20]", "result": "15.49 ± 1.18", "unit": "g"},
      {"measurement": "pain threshold at 3 h after administration", "setting": "[1]; [21]", "result": "17.89 ± 1.16", "unit": "g"},
      {"measurement": "pain threshold at 6 h after administration", "setting": "[1]; [21]", "result": "17.46 ± 1.23", "unit": "g"},
      {"measurement": "pain threshold at 8 h after administration", "setting": "[1]; [21]", "result": "16.93 ± 1.15", "unit": "g"},
      {"measurement": "pain threshold at 3 h after administration", "setting": "[2]; 0.5 mg/kg intraperitoneal, 3 h", "result": "14.04 ± 0.91", "unit": "g"},
      {"measurement": "pain threshold at 0.5 h after administration", "setting": "[2]; 10 mg/kg intraperitoneal", "result": "21.56 ± 1.24", "unit": "g"}
    ]}
  ]
}
